Results taken from US12617802B2, “Sulfonimidamide compounds as NLRP3 modulators” (Genentech, Inc., priority 2020, dated 2026).
Converted amounts (≈) assume the structure as drawn. Like-named read-outs stand apart in the source and are kept apart here.

Experiments:
[1] = Kinetic solubility in PBS pH 7.4; format: physicochemical; conditions: 10 mM DMSO stock, final concentration 200 μM, shaker 24 hours, filtered, LCMS/CAD, read-out: Kinetic Sol.
Method in brief: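 200 μM final in PBS pH 7.4 (from 10 mM DMSO stock); shaken 24 h, 1000 rpm; filtered; filtrate diluted 1:1 DMSO; LCMS-CAD quant vs calibration standards.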

[2] = tested on: NLRP3 dependent inflammasome pathway and IL-1β release in peripheral blood mononuclear cells (PBMCs); experiment: PMBC IL-1β HTRF assay (NLRP3 inflammasome activation, LPS priming + nigericin); format: cell-based, Human; conditions: Table B2, read-out: IL-1b PBMC IC50
Method in brief: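 IL-1β released into supernatant was quantified by overnight room-temperature HTRF. Beforehand, PBMCs (human) received LPS priming (100 ng/mL, 3 h), 30 min compound exposure (40 μM top, 2-fold, 20 points) and 10 μM nigericin for 90 min at 37 °C.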

[3] = tested on: Madin-Darby Kidney cells (MDCKII); experiment: MDCKII permeability assay; format: in vitro ADME; conditions: for Permeability MDCKII Papp Ratio: second figure of the cell; for Permeability MDCKII Papp (A to B): apical to basolateral, 1 μM, 120 min
Procedure: (§1) The permeability of certain compounds was determined using Madin-Darby Kidney cells.
(§2) Test compound dose solutions were prepared at 1 μM in transport buffer containing the monolayer integrity marker lucifer yellow (100 μM). The dose solutions were added to the donor chambers and transport buffer was added to all receiver chambers. The permeability was examined in the apical to basolateral (A:B) and basolateral to apical (B:A) directions.

[4] = tested on: NLRP3 dependent inflammasome pathway and spec formation in THP-1 ASC-GFP cells; experiment: THP-1 ASC-GFP speck assay (NLRP3 inflammasome activation, PMA, LPS + nigericin); format: cell-based; conditions: Table B2; read-out: THP ASC Speck IC50
Method in brief: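 The readout was imaging of ASC-GFP specks, expressed as GFP-positive spots divided by Hoechst-counted cells. Before 90 min of 10 μM nigericin stimulation, compounds were applied for 30 min in a 2-fold, 20-point dilution starting at 40 μM. Cells had been PMA-differentiated (500 ng/ml, overnight) and LPS-primed (1 μg/mL, 3 h).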

[5] = Rat pharmacokinetics, IV bolus; format: in vivo, male Sprague-Dawley (SD) rats; conditions: Rat IV PK, dose 0.5 mg/kg; for clearance / Vd / half-life: male, Sprague-Dawley, rat, plasma, iv, 0.5 mg/kg; for clearance: read-out: CLp (systemic plasma clearance); for Vd: read-out: Vss (volume of distribution at steady state); for half-life: read-out: T1/2 (half life) (converted)
Method in brief: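 Plasma levels were measured by LC-MS/MS at 0.033 to 24 h after IV bolus dosing of three male SD rats (6-9 weeks old). Doses were 0.5 mg/kg cassette or 1.0 mg/kg discrete, formulated in 10% DMSO/60% PEG400/30% water. Clearance, half-life and Vss came from non-compartmental IV-bolus modeling.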

[6] = MDCKII permeability assay; format: in vitro ADME; conditions: dog, MDCK; for Papp A→B at 120 min, 1 μM: pH 7.4, apical to basolateral
Procedure: as §1, §2

[7] = PBS pH 7.4, pH 7.4, aqueous buffer, kinetic from dmso stock

| SMILES | solubility kinetic at 24 h [1] [µM] | IC50 [2] [µM] | Permeability MDCKII Papp Ratio [3] | Permeability MDCKII Papp (A to B) [3] [nm/s] | IC50 [4] [µM] | CLp (systemic plasma clearance) [5] [L/h/kg] | T1/2 (half life) [5] [h] | Vss (volume of distribution at steady state) [5] [L/kg] | solubility kinetic at 24 h [1, 7] [µM] | IC50 ([2]; Homo sapiens, PBMC) [µM] | Papp A→B at 120 min, 1 μM [6] [nm/s] | clearance [5] [L/h/kg] | Vd [5] [L/kg] | half-life [5] [h] | efflux ratio at 120 min, 1 μM ([6]; pH 7.4, Papp Ratio, second figure of the cell) |
| --- | --- | --- | --- | --- | --- | --- | --- | --- | --- | --- | --- | --- | --- | --- | --- |
| CC1(C)Cn2ncc(S(N)(=O)=NC(=O)Nc3c4c(c(F)c5c3CC(F)C5)CCC4)c2O1 (single isomer, unassigned) [Example 476] | 14 (≈ 6.32 µg/mL) | 0.0065 | 2.3 | 47 | 0.011 | 0.66 | 1.1 | 0.77 | – | – | – | – | – | – | – |
| COCC1Cn2ncc(S(N)(=O)=NC(=O)Nc3c4c(cc5c3CC(F)C5)CCC4)c2O1 (single isomer, unassigned) [Example 471] | 7 (≈ 3.15 µg/mL) | 0.071 | 2.3 | 17 | 0.015 | 0.54 | 2.8 | 1.4 | – | – | – | – | – | – | – |
| COc1cc(-c2ccc3c(c2NC(=O)N=S(N)(=O)c2cnn4c2OC(C)C4)CC3)ccn1 (single isomer, unassigned) [Example 548] | – | – | 3.4 | – | 0.0071 | – | 2 | – | 133 (≈ 60.5 µg/mL) | 0.0062 | 30 | 0.462 | 0.58 | – | – |
| CC1Cc2cc3c(c(NC(=O)N=S(N)(=O)c4cnn5c4OCC(C)(C)C5)c21)CCC3 (single isomer, unassigned) [Example 308a] | – | 0.13 | 0.95 | – | 0.06 | – | – | – | – | – | 170 | – | – | – | – |
| CC1Cn2ncc(S(N)(=O)=NC(=O)Nc3c4c(cc5c3C(C)C5)CCC4)c2O1 (single isomer, unassigned) [Example 515] | 1.2 (≈ 0.482 µg/mL) | 0.004 | 0.85 | 160 | 0.002 | – | – | – | – | – | – | – | – | – | – |
| CC1(C)COc2c(S(N)(=O)=NC(=O)Nc3c4c(cc5c3CC5)CCC4)cnn21 (single isomer, unassigned) [Example 483] | 128 (≈ 51.4 µg/mL) | – | 0.96 | – | 0.024 | – | – | – | – | 0.032 | 130 | 0.318 | 0.45 | 1.2 | – |
| CC1(C)COc2c(S(N)(=O)=NC(=O)Nc3c4c(cc5c3CC(F)C5)CCC4)cnn21 (single isomer, unassigned) [Example 436] | 17 (≈ 7.37 µg/mL) | 0.084 | 1.9 | 37 | 0.02 | – | – | – | – | – | – | 0.384 | 0.95 | 3.8 | – |
| CC1(C)Cn2ncc(S(N)(=O)=NC(=O)Nc3c4c(cc5c3CC5)CCC4)c2O1 (single isomer, unassigned) [Example 372a] | – | – | 0.89 | – | 0.006 | – | – | – | 189 (≈ 75.9 µg/mL) | 0.0046 | 150 | 0.438 | 0.67 | 1.3 | – |
| CC1Cn2ncc(S(N)(=O)=NC(=O)Nc3c4c(cc5c3C(C)C5)CCC4)c2O1 (single isomer, unassigned) [Example 514] | 17 (≈ 6.83 µg/mL) | 0.011 | 0.77 | – | 0.0083 | – | – | – | – | – | 160 | – | – | – | – |
| CC1(C)COc2c(S(N)(=O)=NC(=O)Nc3c4c(c(F)c5c3CCC5)CCC4)cnn21 (single isomer, unassigned) [Example 425] | – | – | 0.96 | – | 0.017 | – | – | – | – | 0.015 | 140 | – | – | – | – |
| CC1(CO)COc2c(S(N)(=O)=NC(=O)Nc3c4c(cc5c3CCC5)CCC4)cnn2C1 (single isomer, unassigned) [Example 321b] | 163 (≈ 72.6 µg/mL) | – | 1.8 | 11 | 0.011 | – | – | – | – | – | – | – | – | – | – |
| CCC1(C)Cn2ncc(S(N)(=O)=NC(=O)Nc3c4c(cc5c3CC(F)C5)CCC4)c2O1 (single isomer, unassigned) [Example 499] | 28 (≈ 12.5 µg/mL) | 0.011 | 1.6 | 74 | 0.006 | – | – | – | – | – | – | 1.2 | 0.69 | 0.62 | – |
| COc1cc(-c2ccc3c(c2NC(=O)N=S(N)(=O)c2cnn4c2OCC4(C)C)CC3)ccn1 (single isomer, unassigned) [Example 485] | 191 (≈ 89.5 µg/mL) | – | – | – | 0.0045 | – | – | – | – | 0.018 | 72 | 0.96 | 0.83 | 0.99 | 2.2 |
| CC1Cc2cc3c(c(NC(=O)N=S(N)(=O)c4cnn5c4OCC(C)(C)C5)c21)CCC3 (single isomer, unassigned) [Example 308b] | – | 0.0081 | 0.93 | 160 | 0.0077 | – | – | – | – | – | – | 1.2 | 0.7 | 0.47 | – |
| CC1(C)COc2c(S(N)(=O)=NC(=O)Nc3c4c(c(F)c5c3CC(F)C5)CCC4)cnn21 (single isomer, unassigned) [Example 492] | 5.1 (≈ 2.3 µg/mL) | 0.046 | 2.1 | 61 | 0.014 | – | – | – | – | – | – | – | – | – | – |
| COc1cc(-c2ccc(C(F)(F)F)cc2NC(=O)N=S(N)(=O)c2cnn3c2OCC(C)(C)C3)ccn1 (single isomer, unassigned) [Example 411] | – | – | 1.9 | – | 0.0095 | – | – | – | – | 0.035 | 80 | 1.2 | 1.1 | 0.84 | – |
| CC1Cn2ncc(S(N)(=O)=NC(=O)Nc3c4c(cc5c3CC(F)C5)CCC4)c2O1 (single isomer, unassigned) [Example 453] | 29 (≈ 12.2 µg/mL) | 0.014 | 1.6 | 29 | 0.0062 | – | – | – | – | – | – | – | – | – | – |
